Legend:
bile duct ligated rats [1] = format: in vivo, rat; conditions: serum; BDL rats, clofibrate 50 mg/100 g body weight/day by gavage for 5 days after 7 days BDL; mean ± standard error
[2] = tested on: liver fatty acid binding protein; test: L-FABP mRNA (RT-PCR) and protein (Western blot) level in liver of bile duct ligated rats with clofibrate treatment; format: in vivo, rat; conditions: BDL rats, five day treatment with clofibrate, n=5
Description: FIG. 5. […] Bile-duct ligation animal model time study: […] Histopathologic examination: […] The sense primer was [NT] […] ID NO: 2) (position at 407).

bile duct ligated rats [3] = test: Lipid peroxidation (thiobarbituric acid-reactive substances) assay in bile duct ligated rats with clofibrate treatment; format: in vivo, rat; conditions: BDL rats, clofibrate 50 mg/100 g body weight/day by gavage for 5 days after 7 days BDL, mean ± standard error
Description: Bile-duct ligation animal model time study: […] Histopathologic examination: […] The sense primer was [NT] […] ID NO: 2) (position at 407).

[4] = In vitro antioxidative effect on free radicals released by the hydrophilic free radical generator AAPH; format: biochemical; conditions: mean±SD, n=6
Experimental: FIG. 6 Effect of L-FABP on free radicals released by the hydrophilic free radical generator AAPH. L-FABP had as much effect on inactivating hydrophilic free radicals as 3.5 mM Vitamin C, while lysozyme and albumin had negligible effect, 96±1% and 97±1%, respectively (mean±SD, n=6).
(§1) Our group has constructed and isolated recombinant L-FABP and used this protein in an in vitro model to study it's antioxidative properties.

[5] = In vitro antioxidative effect on free radicals released by the lipophilic free radical generator AMVN; format: biochemical
Experimental: FIG. 7 Effect of L-FABP on free radicals released by the lipophilic free radical generator AMVN. L-FABP had as much effect on inactivating lipophilic free radicals as 5 μM Vitamin E (mean±SD, n=6).
as §1

Compound: CCOC(=O)C(C)(C)Oc1ccc(Cl)cc1 [Clofibrate]
- ATL (bile duct ligated rats [1]): 30.70 ± 3.26 U/L
- Ammonia (bile duct ligated rats [1]): 205.7 ± 16.6 µmol/L
- Total Bilirubin (bile duct ligated rats [1]): 4.87 ± 0.90 mg/dL
- liver fatty acid binding protein mRNA level, of the sham group ([2]; RT-PCR): 74%
- liver fatty acid binding protein level, of the sham group ([2]; Western blot): 79%
- TBARS (liver) (bile duct ligated rats [3]; liver): 0.266 ± 0.053 nmol/mg protein
- TBARS (serum) (bile duct ligated rats [3]; serum): 0.212 ± 0.032 nmol/ml serum

Compound: Lysozyme
- effect on free radical inactivation (AAPH) [4]: 96±1%

Compound: Albumin
- effect on free radical inactivation (AAPH) [4]: 97±1%

Compound: O=C1O[C@H]([C@@H](O)CO)C(O)=C1O [Vitamin C]
- antioxidant properties in the AMVN system [5]: no antioxidant properties
